In patent publication US9340590B2 (priority 2011, dated 2016):
pIC50: −log10 of the molar value. Where two headings read alike, the source gives them in different places. Positions of bridges follow the written chain, without caps; N, C: chain ends. Non-standard residues stand in square brackets, D forms with d. Residues, ends and D or L forms follow the SMILES beside them. *: point of attachment. Pent4ynoyl = C#CCCC(=O)*; Abu = CC[C@H](N)C(=O)O

Columns and labels:
Assay in all cases: cell-based
[1] = molecular target: hNav1.7 (Homo sapiens, UniProt Q15858); format: cell-based
Sequence of hNav1.7 (Q15858 whole entry, looked up): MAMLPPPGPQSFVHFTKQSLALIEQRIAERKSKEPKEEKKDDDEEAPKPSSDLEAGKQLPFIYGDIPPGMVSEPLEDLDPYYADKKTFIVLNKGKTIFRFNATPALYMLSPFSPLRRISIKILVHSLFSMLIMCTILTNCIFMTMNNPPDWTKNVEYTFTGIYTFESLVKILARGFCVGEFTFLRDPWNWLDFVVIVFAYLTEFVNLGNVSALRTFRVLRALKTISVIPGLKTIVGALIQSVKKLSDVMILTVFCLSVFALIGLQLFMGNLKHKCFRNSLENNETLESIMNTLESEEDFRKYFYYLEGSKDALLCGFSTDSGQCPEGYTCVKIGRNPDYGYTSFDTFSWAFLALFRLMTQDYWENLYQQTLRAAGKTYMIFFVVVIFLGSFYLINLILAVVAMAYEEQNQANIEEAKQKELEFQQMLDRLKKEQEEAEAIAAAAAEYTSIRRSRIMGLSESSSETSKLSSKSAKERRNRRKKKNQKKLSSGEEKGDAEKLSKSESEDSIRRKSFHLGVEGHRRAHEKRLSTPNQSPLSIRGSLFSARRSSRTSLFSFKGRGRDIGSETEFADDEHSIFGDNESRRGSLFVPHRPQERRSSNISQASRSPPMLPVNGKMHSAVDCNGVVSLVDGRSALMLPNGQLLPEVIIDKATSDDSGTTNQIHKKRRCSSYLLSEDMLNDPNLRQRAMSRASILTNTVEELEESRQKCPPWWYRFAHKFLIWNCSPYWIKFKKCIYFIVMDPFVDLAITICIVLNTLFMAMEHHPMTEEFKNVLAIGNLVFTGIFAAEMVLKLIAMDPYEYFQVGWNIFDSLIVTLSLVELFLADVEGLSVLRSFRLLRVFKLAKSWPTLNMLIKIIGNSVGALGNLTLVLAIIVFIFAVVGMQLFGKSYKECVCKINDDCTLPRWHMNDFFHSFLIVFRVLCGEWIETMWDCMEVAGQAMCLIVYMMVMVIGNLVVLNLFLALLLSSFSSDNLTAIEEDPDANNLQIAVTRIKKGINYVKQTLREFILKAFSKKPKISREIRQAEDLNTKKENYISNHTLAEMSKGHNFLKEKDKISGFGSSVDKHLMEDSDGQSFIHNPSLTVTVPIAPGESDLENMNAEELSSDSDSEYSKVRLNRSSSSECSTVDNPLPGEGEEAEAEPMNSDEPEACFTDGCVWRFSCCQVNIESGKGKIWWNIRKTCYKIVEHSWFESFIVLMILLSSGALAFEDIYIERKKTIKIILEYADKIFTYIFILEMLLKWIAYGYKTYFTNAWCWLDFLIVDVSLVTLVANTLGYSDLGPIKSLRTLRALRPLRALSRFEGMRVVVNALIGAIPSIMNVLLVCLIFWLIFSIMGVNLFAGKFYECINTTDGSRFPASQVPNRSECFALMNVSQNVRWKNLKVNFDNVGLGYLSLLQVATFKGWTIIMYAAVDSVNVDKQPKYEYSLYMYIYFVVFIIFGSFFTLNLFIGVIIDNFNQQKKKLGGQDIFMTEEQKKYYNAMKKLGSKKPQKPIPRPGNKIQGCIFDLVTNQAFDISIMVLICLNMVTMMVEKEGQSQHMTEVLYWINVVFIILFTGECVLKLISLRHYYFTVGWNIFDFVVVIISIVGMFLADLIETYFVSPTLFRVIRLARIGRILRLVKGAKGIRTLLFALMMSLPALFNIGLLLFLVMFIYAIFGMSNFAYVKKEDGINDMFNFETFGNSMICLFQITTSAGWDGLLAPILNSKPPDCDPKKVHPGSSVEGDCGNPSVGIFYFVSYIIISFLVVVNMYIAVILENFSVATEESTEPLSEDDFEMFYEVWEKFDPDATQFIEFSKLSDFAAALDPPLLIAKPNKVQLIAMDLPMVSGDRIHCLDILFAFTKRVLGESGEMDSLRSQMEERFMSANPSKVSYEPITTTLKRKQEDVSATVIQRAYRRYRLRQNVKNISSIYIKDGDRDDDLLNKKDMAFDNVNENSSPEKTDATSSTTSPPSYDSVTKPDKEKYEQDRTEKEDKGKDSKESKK

[2] = molecular target: hNav1.5 (Homo sapiens, UniProt Q14524); conditions: for pIC50: IonWorks Quattro, read-out: IWQ Use Nav1.5
[3] = molecular target: hNav1.3 (Homo sapiens, UniProt Q9NY46); conditions: IonWorks Quattro, read-out: IWQ Use Nav1.3
Sequence of hNav1.3 (Q9NY46 whole entry, looked up): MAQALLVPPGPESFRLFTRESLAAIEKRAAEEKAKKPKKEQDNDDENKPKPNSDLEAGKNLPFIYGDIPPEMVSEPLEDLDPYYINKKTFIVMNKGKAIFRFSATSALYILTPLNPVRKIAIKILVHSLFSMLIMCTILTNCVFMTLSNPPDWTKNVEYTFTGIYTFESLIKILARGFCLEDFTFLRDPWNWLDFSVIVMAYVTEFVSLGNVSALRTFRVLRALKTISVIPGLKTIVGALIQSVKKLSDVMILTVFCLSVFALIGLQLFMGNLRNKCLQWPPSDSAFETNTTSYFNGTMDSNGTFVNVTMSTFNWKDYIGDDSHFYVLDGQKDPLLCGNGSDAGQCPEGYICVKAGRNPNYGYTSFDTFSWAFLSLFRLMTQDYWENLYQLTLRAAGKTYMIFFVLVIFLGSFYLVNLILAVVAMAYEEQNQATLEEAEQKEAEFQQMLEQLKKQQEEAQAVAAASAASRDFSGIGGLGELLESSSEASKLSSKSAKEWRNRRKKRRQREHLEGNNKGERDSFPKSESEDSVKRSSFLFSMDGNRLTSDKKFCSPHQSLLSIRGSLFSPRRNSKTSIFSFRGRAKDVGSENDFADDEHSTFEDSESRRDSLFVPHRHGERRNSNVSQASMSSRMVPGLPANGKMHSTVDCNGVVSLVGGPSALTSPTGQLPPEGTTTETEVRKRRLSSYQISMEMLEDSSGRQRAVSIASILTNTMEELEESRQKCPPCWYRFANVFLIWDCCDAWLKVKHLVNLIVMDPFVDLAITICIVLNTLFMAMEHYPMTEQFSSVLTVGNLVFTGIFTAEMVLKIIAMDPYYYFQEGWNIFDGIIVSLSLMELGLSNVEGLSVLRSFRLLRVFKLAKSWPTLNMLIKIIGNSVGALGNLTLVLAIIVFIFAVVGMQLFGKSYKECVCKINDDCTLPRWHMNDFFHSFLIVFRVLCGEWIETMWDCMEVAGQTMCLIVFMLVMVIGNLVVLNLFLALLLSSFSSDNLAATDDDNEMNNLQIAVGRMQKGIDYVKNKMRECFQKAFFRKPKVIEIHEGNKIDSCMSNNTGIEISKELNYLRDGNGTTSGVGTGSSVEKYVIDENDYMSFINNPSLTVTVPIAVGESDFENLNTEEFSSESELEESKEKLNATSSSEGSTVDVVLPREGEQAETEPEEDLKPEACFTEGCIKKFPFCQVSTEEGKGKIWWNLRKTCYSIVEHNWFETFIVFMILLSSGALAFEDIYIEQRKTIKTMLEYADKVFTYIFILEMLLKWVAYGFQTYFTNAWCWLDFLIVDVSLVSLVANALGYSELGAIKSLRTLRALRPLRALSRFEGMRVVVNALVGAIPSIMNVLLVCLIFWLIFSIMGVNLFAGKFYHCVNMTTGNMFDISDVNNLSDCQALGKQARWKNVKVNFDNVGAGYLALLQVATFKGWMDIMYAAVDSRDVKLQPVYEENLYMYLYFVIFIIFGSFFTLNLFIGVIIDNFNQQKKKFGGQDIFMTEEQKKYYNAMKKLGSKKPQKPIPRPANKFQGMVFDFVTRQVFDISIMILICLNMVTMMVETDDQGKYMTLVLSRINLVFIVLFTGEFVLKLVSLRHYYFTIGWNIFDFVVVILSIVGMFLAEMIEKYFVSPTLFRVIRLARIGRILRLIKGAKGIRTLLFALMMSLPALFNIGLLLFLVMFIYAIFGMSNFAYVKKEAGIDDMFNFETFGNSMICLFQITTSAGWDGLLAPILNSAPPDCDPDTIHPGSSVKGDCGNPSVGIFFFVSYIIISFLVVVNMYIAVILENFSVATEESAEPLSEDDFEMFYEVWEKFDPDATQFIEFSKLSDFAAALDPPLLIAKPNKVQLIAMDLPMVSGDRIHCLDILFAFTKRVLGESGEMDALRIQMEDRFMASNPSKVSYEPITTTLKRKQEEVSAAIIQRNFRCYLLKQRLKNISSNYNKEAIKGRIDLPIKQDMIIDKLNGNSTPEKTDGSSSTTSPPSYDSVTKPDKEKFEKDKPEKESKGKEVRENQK

[4] = IonWorks Quattro, Use, read-out: IWQ Use Nav1.7
[5] = IonWorks Quattro, use-dependent block, hNav1.7, read-out: IWQ Use Nav1.7

In the case of `CC[C@H](C)[C@@H]1NC(=O)[C@@H]2CSSC[C@@H]3NC(=O)[C@H](C(C)C)NC(=O)[C@H](CC(C)C)NC(=O)[C@H](CC(N)=O)NC(=O)[C@@H]4CCCN4C(=O)[C@H](CCCNC(=N)N)NC(=O)[C@H](CSSC[C@H](NC(=O)[C@@H](N)CC(=O)O)C(=O)N[C@@H](CC(C)C)C(=O)NCC(=O)N[C@@H](Cc4ccccc4)C(=O)N[C@@H](CCSC)C(=O)N[C@@H](CCCNC(=N)N)C(=O)N[C@@H](CCCCN)C(=O)N2)NC(=O)[C@H](CSSC[C@@H](C(=O)N[C@@H](CCCCN)C(=O)N[C@@H](Cc2ccc(O)cc2)C(=O)N[C@H](C(=O)N[C@@H](Cc2ccccc2)C(=O)N[C@@H](CCCNC(=N)N)C(N)=O)C(C)C)NC(=O)[C@H](Cc2c[nH]c4ccccc24)NC(=O)[C@H](CCCCN)NC(=O)[C@H](Cc2cnc[nH]2)NC(=O)[C@H]([C@@H](C)O)NC(=O)[C@H](CCCNC(=N)N)NC(=O)[C@H](CO)NC3=O)NC(=O)[C@H](CCCCN)NC(=O)[C@H](CC(=O)O)NC(=O)[C@H](CC(N)=O)NC(=O)[C@H](CC(=O)O)NC(=O)[C@@H]2CCCN2C1=O` [compound 76], the pIC50 ([1]; IonWorks Quattro, use-dependent, […], read-out: IWQ Use Nav1.7 (μm)) was 6.52, the pIC50 ([2]; use-dependent, […]) was 5.01 and the pIC50 ([3]; use-dependent, […]) was 7.00.

Compound `CC[C@H](C)[C@@H]1NC(=O)[C@@H]2CSSC[C@@H]3NC(=O)[C@H](C(C)C)NC(=O)[C@H](CC(C)C)NC(=O)[C@H](CC(N)=O)NC(=O)[C@@H]4CCCN4C(=O)[C@H](CCCNC(=N)N)NC(=O)[C@H](CSSC[C@H](NC(=O)[C@@H](N)CC(=O)O)C(=O)N[C@@H](CC(C)C)C(=O)NCC(=O)N[C@@H](Cc4ccccc4)C(=O)N[C@@H](CCSC)C(=O)N[C@@H](CCCNC(=N)N)C(=O)N[C@@H](CCCCN)C(=O)N2)NC(=O)[C@H](CSSC[C@@H](C(=O)N[C@@H](CCCCN)C(=O)N[C@@H](Cc2ccc(O)cc2)C(=O)N[C@H](C(=O)N[C@@H](Cc2ccccc2)C(N)=O)C(C)C)NC(=O)[C@H](Cc2c[nH]c4ccccc24)NC(=O)[C@H](CCCCN)NC(=O)[C@H](Cc2c[nH]cn2)NC(=O)[C@H](Cc2ccc(O)cc2)NC(=O)[C@H](CCCNC(=N)N)NC(=O)[C@H](CO)NC3=O)NC(=O)[C@H](CCCCN)NC(=O)[C@H](CC(=O)O)NC(=O)[C@H](CC(N)=O)NC(=O)[C@H](CC(=O)O)NC(=O)[C@@H]2CCCN2C1=O` [compound 340] (H-DCLGFMRKCIPDNDKCCRPNLVCSRYHKWCKYVF-NH2; disulfide 2-17, 9-23, 16-30) has a pIC50 ([1]; Table 22, IonWorks Quattro, use, […], read-out: IWQ Use Nav1.7) of 7.10, a pIC50 ([2]; Table 22, use, […]) of 5.26 and a pIC50 ([3]; Table 22, use, […]) of 7.22.

`CC[C@H](C)[C@@H]1NC(=O)[C@@H]2CSSC[C@@H]3NC(=O)[C@H](CC(C)C)NC(=O)[C@H](CC(C)C)NC(=O)[C@H](CC(N)=O)NC(=O)[C@@H]4CCCN4C(=O)[C@H](CCCNC(=N)N)NC(=O)[C@H](CSSC[C@H](NC(=O)[C@@H](N)CC(=O)O)C(=O)N[C@@H](CC(C)C)C(=O)NCC(=O)N[C@@H](Cc4ccccc4)C(=O)N[C@@H](CCSC)C(=O)N[C@@H](CCCNC(=N)N)C(=O)N[C@@H](CCCCN)C(=O)N2)NC(=O)[C@H](CSSC[C@@H](C(=O)N[C@@H](CCCCN)C(=O)N[C@@H](Cc2ccc(O)cc2)C(=O)N[C@H](C(=O)N[C@@H](Cc2ccccc2)C(N)=O)C(C)C)NC(=O)[C@H](Cc2c[nH]c4ccccc24)NC(=O)[C@H](CCCCN)NC(=O)[C@H](Cc2c[nH]cn2)NC(=O)[C@H]([C@@H](C)O)NC(=O)[C@H](CCCNC(=N)N)NC(=O)[C@H](CO)NC3=O)NC(=O)[C@H](CCCCN)NC(=O)[C@H](CC(=O)O)NC(=O)[C@H](CC(N)=O)NC(=O)[C@H](CC(=O)O)NC(=O)[C@@H]2CCCN2C1=O` [compound 322] (H-DCLGFMRKCIPDNDKCCRPNLLCSRTHKWCKYVF-NH2; disulfide 2-17, 9-23, 16-30) showed a pIC50 [1, 4] of 7.05, a pIC50 ([2]; Use) of 5.02 and a pIC50 ([3]; Use) of 7.15.

Work on `CC[C@H](C)[C@@H]1NC(=O)[C@@H]2CSSC[C@@H]3NC(=O)[C@H](Cc4c[nH]c5ccccc45)NC(=O)[C@H](CC(C)C)NC(=O)[C@H](CC(N)=O)NC(=O)[C@@H]4CCCN4C(=O)[C@H](CCCNC(=N)N)NC(=O)[C@H](CSSC[C@H](NC(=O)[C@@H](N)CC(=O)O)C(=O)N[C@@H](CC(C)C)C(=O)NCC(=O)N[C@@H](Cc4ccccc4)C(=O)N[C@@H](CCSC)C(=O)N[C@@H](CCCNC(=N)N)C(=O)N[C@@H](CCCCN)C(=O)N2)NC(=O)[C@H](CSSC[C@@H](C(=O)N[C@@H](CCCCN)C(=O)N[C@@H](Cc2ccc(O)cc2)C(=O)N[C@H](C(=O)N[C@@H](Cc2ccccc2)C(N)=O)C(C)C)NC(=O)[C@H](Cc2c[nH]c4ccccc24)NC(=O)[C@H](CCCCN)NC(=O)[C@H](Cc2cnc[nH]2)NC(=O)[C@H]([C@@H](C)O)NC(=O)[C@H](CCCNC(=N)N)NC(=O)[C@H](CO)NC3=O)NC(=O)[C@H](CCCCN)NC(=O)[C@H](CC(=O)O)NC(=O)[C@H](CC(N)=O)NC(=O)[C@H](CC(=O)O)NC(=O)[C@@H]2CCCN2C1=O` [compound 177] (H-DCLGFMRKCIPDNDKCCRPNLWCSRTHKWCKYVF-NH2; disulfide 2-17, 9-23, 16-30) yielded a pIC50 [1] of 7.52, an IC50 ([2]; IWQ Use Nav1.5 (μM)) of 8.02 µM and a pIC50 ([3]; Use) of 7.22.

`C#CCCC(=O)N[C@@H](CC(=O)O)C(=O)N[C@H]1CSSC[C@@H]2NC(=O)[C@@H]3CSSC[C@@H](C(=O)N[C@@H](CCCCN)C(=O)N[C@@H](Cc4ccc(O)cc4)C(=O)N[C@H](C(=O)N[C@@H](Cc4ccccc4)C(N)=O)C(C)C)NC(=O)[C@H](Cc4c[nH]c5ccccc45)NC(=O)[C@H](CCCNC(=N)N)NC(=O)[C@H](Cc4c[nH]cn4)NC(=O)[C@H]([C@@H](C)O)NC(=O)[C@H](CCCNC(=N)N)NC(=O)[C@H](CO)NC(=O)[C@H](CSSC[C@H](NC(=O)[C@H](CCCCN)NC(=O)[C@H](CCCNC(=N)N)NC(=O)[C@H](Cc4ccccc4)NC(=O)[C@H](C)NC(=O)CNC(=O)[C@H](CC(C)C)NC1=O)C(=O)N[C@@H]([C@@H](C)CC)C(=O)N1CCC[C@H]1C(=O)N[C@@H](CC(=O)O)C(=O)N[C@@H](CC)C(=O)N[C@@H](CC(=O)O)C(=O)N[C@@H](CCCCN)C(=O)N3)NC(=O)[C@H](C(C)C)NC(=O)[C@H](CC(C)C)NC(=O)[C@H](CC(N)=O)NC(=O)[C@@H]1CCCN1C(=O)[C@H](CCCNC(=N)N)NC2=O` [compound 756] (Pent4ynoyl-DCLGAFRKCIPD[Abu]DKCCRPNLVCSRTHRWCKYVF-NH2; disulfide 2-17, 9-23, 16-30) was tested, and the pIC50 [1, 5] was 6.74, the pIC50 ([2]; use-dependent block, hNav1.5) was 4.35 and the pIC50 ([3]; use-dependent block, hNav1.3) was 6.59.

With `CC[C@H](C)[C@@H]1NC(=O)[C@@H]2CSSC[C@@H]3NC(=O)[C@H](C(C)C)NC(=O)[C@H](CC(C)C)NC(=O)[C@H](Cc4ccccc4)NC(=O)[C@@H]4CCCN4C(=O)[C@H](CCCNC(=N)N)NC(=O)[C@H](CSSC[C@H](NC(=O)[C@@H](N)CC(=O)O)C(=O)N[C@@H](CC(C)C)C(=O)NCC(=O)N[C@@H](Cc4ccccc4)C(=O)N[C@@H](CCSC)C(=O)N[C@@H](CCCNC(=N)N)C(=O)N[C@@H](CCCCN)C(=O)N2)NC(=O)[C@H](CSSC[C@@H](C(=O)N[C@@H](CCCCN)C(=O)N[C@@H](Cc2ccc(O)cc2)C(=O)N[C@H](C(=O)N[C@@H](Cc2ccccc2)C(N)=O)C(C)C)NC(=O)[C@H](Cc2c[nH]c4ccccc24)NC(=O)[C@H](CCCCN)NC(=O)[C@H](Cc2c[nH]cn2)NC(=O)[C@H]([C@@H](C)O)NC(=O)[C@H](CCCNC(=N)N)NC(=O)[C@H](CO)NC3=O)NC(=O)[C@H](CCCCN)NC(=O)[C@H](CC(=O)O)NC(=O)[C@H](CC(N)=O)NC(=O)[C@H](CC(=O)O)NC(=O)[C@@H]2CCCN2C1=O` [compound 199] (H-DCLGFMRKCIPDNDKCCRPFLVCSRTHKWCKYVF-NH2; disulfide 2-17, 9-23, 16-30) the pIC50 [1, 4] was 6.81, the pIC50 ([2]; Use) was 4.97 and the pIC50 ([3]; Use) was 7.17.

`CC[C@H](C)[C@@H]1NC(=O)[C@@H]2CSSC[C@@H]3NC(=O)[C@H](C(C)C)NC(=O)[C@H](CC(C)C)NC(=O)[C@H](CC(N)=O)NC(=O)[C@@H]4CCCN4C(=O)[C@H](CCCNC(=N)N)NC(=O)[C@H](CSSC[C@H](NC(=O)[C@@H](N)CC(=O)O)C(=O)N[C@@H](CC(C)C)C(=O)NCC(=O)N[C@@H](C)C(=O)N[C@@H](CCSC)C(=O)N[C@@H](CCCNC(=N)N)C(=O)N[C@@H](CCCCN)C(=O)N2)NC(=O)[C@H](CSSC[C@@H](C(=O)N[C@@H](CCC(=O)O)C(=O)N[C@@H](Cc2ccc(O)cc2)C(=O)N[C@H](C(=O)N[C@@H](Cc2ccccc2)C(N)=O)C(C)C)NC(=O)[C@H](Cc2c[nH]c4ccccc24)NC(=O)[C@H](CCCCN)NC(=O)[C@H](Cc2c[nH]cn2)NC(=O)[C@H]([C@@H](C)O)NC(=O)[C@H](CCCNC(=N)N)NC(=O)[C@H](CO)NC3=O)NC(=O)[C@H](CCCCN)NC(=O)[C@H](CC(=O)O)NC(=O)[C@H](CC(N)=O)NC(=O)[C@H](CC(=O)O)NC(=O)[C@@H]2CCCN2C1=O` [compound 789] (H-DCLGAMRKCIPDNDKCCRPNLVCSRTHKWCEYVF-NH2; disulfide 2-17, 9-23, 16-30) was tested, and the pIC50 [1, 5] was under 5.30, the pIC50 ([2]; use-dependent block, hNav1.5) was 4.50 and the pIC50 ([3]; use-dependent block, hNav1.3) was under 5.30.
